Drawing on ChEMBL document CHEMBL1154297, “Inhibitor profiling of the Pseudomonas aeruginosa virulence factor LasB using N-alpha mercaptoamide template-based inhibitors” (Bioorg Med Chem Lett, 2009), this text covers Ki for 76 molecules.

Elastase, sequence (P14756 whole entry): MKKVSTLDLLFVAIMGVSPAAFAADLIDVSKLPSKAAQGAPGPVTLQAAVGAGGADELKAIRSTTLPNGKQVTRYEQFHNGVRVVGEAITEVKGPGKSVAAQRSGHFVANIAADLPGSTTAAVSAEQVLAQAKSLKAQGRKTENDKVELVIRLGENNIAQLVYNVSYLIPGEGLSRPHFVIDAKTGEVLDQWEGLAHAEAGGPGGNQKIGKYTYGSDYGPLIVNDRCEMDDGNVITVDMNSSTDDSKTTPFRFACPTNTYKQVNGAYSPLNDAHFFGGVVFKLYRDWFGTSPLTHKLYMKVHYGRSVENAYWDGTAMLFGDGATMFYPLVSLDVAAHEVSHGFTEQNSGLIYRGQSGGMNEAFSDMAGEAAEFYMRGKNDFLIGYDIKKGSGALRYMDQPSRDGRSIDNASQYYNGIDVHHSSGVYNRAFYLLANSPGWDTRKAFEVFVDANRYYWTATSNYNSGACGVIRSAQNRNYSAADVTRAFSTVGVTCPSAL

The first test addresses Elastase (Pseudomonas aeruginosa (strain ATCC 15692 / PAO1 / 1C / PRS 101 / LMG12228), UniProt P14756). Nature of the test: Inhibition of Pseudomonas aeruginosa LasB by fluorimetric assay in buffer of pH 7.2.
Conditions: not given; call rule not given here
The term Ki denotes a dissociation constant, usually derived from enzyme kinetics or from competition with a known ligand. As to `NCCCC[C@H](NC(=O)CS)C(=O)N[C@@H](Cc1c[nH]c2ccccc12)C(N)=O`, the inhibitory constant (Ki) result is “Not Active”.

`CC[C@@H](C)[C@H](NC(=O)CS)C(=O)N[C@@H](Cc1ccccc1)C(N)=O`: the Ki entry is on record as “Not Active”.

On to `CC[C@@H](C)[C@H](NC(=O)CS)C(=O)N[C@@H](CCCNC(=N)N)C(N)=O`, for which the inhibition constant (Ki) entry is given as “Not Active”.

With `C[C@H](NC(=O)CS)C(=O)N[C@@H](Cc1ccccc1)C(N)=O`, the Ki entry is on record as “Not Active”.

Take `NC(=O)[C@H](CC(=O)O)NC(=O)[C@H](Cc1c[nH]cn1)NC(=O)CS`: the inhibitory constant (Ki) entry is “Not Active”.

Consider `NC(=O)[C@H](CC(=O)O)NC(=O)[C@H](CC(=O)O)NC(=O)CS`, for which the inhibition constant Ki result was “Not Active”.

Consider `CC(C)[C@H](NC(=O)[C@H](CCCNC(=N)N)NC(=O)CS)C(N)=O`, for which the inhibition constant (Ki) result is “Not Active”.

As to `CC(C)[C@H](NC(=O)[C@H](CC(=O)O)NC(=O)CS)C(N)=O`, the inhibition constant (Ki) entry is “Not Active”.

Consider `CC(C)C[C@H](NC(=O)CS)C(=O)N[C@H](C(N)=O)C(C)C`, for which the inhibition constant Ki result is given as “Not Active”.

Regarding `NC(=O)C[C@H](NC(=O)CS)C(=O)N[C@@H](CC(=O)O)C(N)=O`, the inhibitory constant (Ki) entry was “Not Active”.

For `C[C@@H](O)[C@H](NC(=O)CS)C(=O)N[C@@H](CC(=O)O)C(N)=O`, the inhibitory constant (Ki) result is “Not Active”.

Consider `NC(=O)[C@H](CC(=O)O)NC(=O)[C@H](CS)NC(=O)CS`, for which the Ki entry was “Not Active”.

For `CSCC[C@H](NC(=O)CS)C(=O)N[C@@H](CC(C)C)C(N)=O`, the inhibitory constant (Ki) entry was “Not Active”.

On to `NC(=O)[C@H](CC(=O)O)NC(=O)[C@H](CO)NC(=O)CS`, for which the inhibition constant Ki entry is listed as “Not Active”.

On to `N=C(N)NCCC[C@H](NC(=O)[C@H](CCCCN)NC(=O)CS)C(N)=O`, for which the Ki result is reported as “Not Active”.

`N=C(N)NCCC[C@H](NC(=O)[C@H](CCCNC(=N)N)NC(=O)CS)C(N)=O`: the inhibitory constant (Ki) entry is listed as “Not Active”.

As to `CC(C)C[C@H](NC(=O)[C@H](CCC(=O)O)NC(=O)CS)C(N)=O`, the Ki entry is “Not Active”.

`N=C(N)NCCC[C@H](NC(=O)[C@H](Cc1c[nH]cn1)NC(=O)CS)C(N)=O`: the Ki entry is “Not Active”.

In the case of `C[C@@H](O)[C@H](NC(=O)CS)C(=O)N[C@@H](CCCCN)C(N)=O`, the Ki result was “Not Active”.

In the case of `NC(=O)CC[C@H](NC(=O)CS)C(=O)N[C@@H](CC(=O)O)C(N)=O`, the inhibition constant (Ki) entry was “Not Active”.

As for `NC(=O)[C@H](CC(=O)O)NC(=O)[C@H](Cc1ccccc1)NC(=O)CS`, the inhibition constant Ki result was “Not Active”.

The test is the same for the next values; noted with them: read-out: Ki.
`CC[C@@H](C)[C@H](NC(=O)CS)C(=O)N[C@@H](CCCCN)C(N)=O`: the Ki is 190 µM.

For the molecule `CC(C)C[C@H](NC(=O)CNC(=O)CS)C(N)=O`, the inhibitory constant (Ki) was 138 µM.

Consider `CC(C)[C@H](NC(=O)[C@@H]1CCCN1C(=O)CS)C(N)=O`, for which the inhibitory constant (Ki) was found to be 157 µM.

As for `NC(=O)[C@H](Cc1ccccc1)NC(=O)[C@H](CCCN=C(N)N)NC(=O)CS`, the inhibition constant Ki was found to be 224 µM.

`CC(C)[C@H](NC(=O)CNC(=O)CS)C(N)=O`: the Ki came out at 457 µM.

On to `NC(=O)C[C@H](NC(=O)CS)C(=O)N[C@@H](Cc1ccccc1)C(N)=O`, for which the Ki turned out to be 37 µM.

As to `NCCCC[C@H](NC(=O)[C@H](Cc1ccc(O)cc1)NC(=O)CS)C(N)=O`, the Ki was 8.5 µM.

For `NC(=O)[C@H](CC(=O)O)NC(=O)[C@H](CCCN=C(N)N)NC(=O)CS`, the Ki was found to be 650 µM.

For `CC(C)C[C@H](NC(=O)[C@H](Cc1c[nH]c2ccccc12)NC(=O)CS)C(N)=O`, the Ki was 3.7 µM.

In the case of `NC(=O)CC[C@H](NC(=O)CS)C(=O)N[C@@H](Cc1c[nH]c2ccccc12)C(N)=O`, the Ki worked out at 91 µM.

In the case of `N=C(N)NCCC[C@H](NC(=O)[C@H](CS)NC(=O)CS)C(N)=O`, the Ki turned out to be 646 µM.

In the case of `CC(C)[C@H](NC(=O)[C@H](C)NC(=O)CS)C(N)=O`, the inhibition constant Ki was found to be 51 µM.

Regarding `CC(C)[C@H](NC(=O)[C@H](CCC(N)=O)NC(=O)CS)C(N)=O`, the inhibitory constant (Ki) was 937 µM.

Take `CC(C)C[C@H](NC(=O)[C@H](Cc1c[nH]cn1)NC(=O)CS)C(N)=O`: the Ki was found to be 306 µM.

On to `CC(C)C[C@H](NC(=O)[C@H](C)NC(=O)CS)C(N)=O`, for which the inhibition constant (Ki) came to 21 µM.

Take `N=C(N)NCCC[C@H](NC(=O)CS)C(=O)N[C@@H](CCCCN)C(N)=O`: the Ki was 135 µM.

Regarding `NCCCC[C@H](NC(=O)[C@H](CCCCN)NC(=O)CS)C(N)=O`, the Ki was 433 µM.

`C[C@H](NC(=O)CS)C(=O)N[C@@H](CCCNC(=N)N)C(N)=O`: the Ki came out at 115 µM.

Turning to `N=C(N)NCCC[C@H](NC(=O)[C@H](CC(N)=O)NC(=O)CS)C(N)=O`, the inhibition constant Ki stood at 280 µM.

As to `CC(C)[C@H](NC(=O)[C@H](Cc1ccccc1)NC(=O)CS)C(N)=O`, the inhibition constant (Ki) was 11 µM.

On to `CC(C)C[C@H](NC(=O)[C@H](CO)NC(=O)CS)C(N)=O`, for which the inhibitory constant (Ki) worked out at 510 µM.

Turning to `NC(=O)[C@H](Cc1c[nH]c2ccccc12)NC(=O)[C@H](CCCN=C(N)N)NC(=O)CS`, the inhibitory constant (Ki) is 125 µM.

For `CC(C)C[C@H](NC(=O)[C@H](Cc1ccc(O)cc1)NC(=O)CS)C(N)=O`, the inhibition constant (Ki) came to 33 µM.

As to `CC(C)C[C@H](NC(=O)CS)C(=O)N[C@@H](Cc1ccccc1)C(N)=O`, the Ki is 113 µM.

As to `CC[C@@H](C)[C@H](NC(=O)CS)C(=O)N[C@H](C(N)=O)C(C)C`, the Ki amounted to 1.8 µM.

Turning to `NC(=O)[C@H](CC(=O)O)NC(=O)[C@H](Cc1c[nH]c2ccccc12)NC(=O)CS`, the Ki worked out at 38 µM.

As for `NCCCC[C@H](NC(=O)[C@H](CC(N)=O)NC(=O)CS)C(N)=O`, the Ki was 289 µM.

In the case of `NC(=O)[C@H](CCCN=C(N)N)NC(=O)[C@H](Cc1ccc(O)cc1)NC(=O)CS`, the Ki was determined as 3 µM.

For `NC(=O)[C@H](Cc1ccccc1)NC(=O)[C@H](CCC(=O)O)NC(=O)CS`, the Ki stood at 146 µM.

For `CC(C)[C@H](NC(=O)CS)C(=O)N[C@@H](CCCCN)C(N)=O`, the Ki amounted to 22 µM.

For the molecule `CC(C)[C@H](NC(=O)[C@@H](NC(=O)CS)C(C)C)C(N)=O`, the inhibition constant (Ki) was 10 µM.

For `NC(=O)[C@H](Cc1c[nH]c2ccccc12)NC(=O)[C@@H]1CCCN1C(=O)CS`, the Ki was 562 µM.

Take `CC[C@@H](C)[C@H](NC(=O)CS)C(=O)N[C@@H](CC(=O)O)C(N)=O`: the inhibitory constant (Ki) amounted to 142 µM.

On to `CC(C)C[C@H](NC(=O)[C@H](CCC(N)=O)NC(=O)CS)C(N)=O`, for which the inhibition constant Ki was found to be 540 µM.

With `CSCC[C@H](NC(=O)CS)C(=O)N[C@@H](Cc1c[nH]c2ccccc12)C(N)=O`, the Ki was 204 µM.

Regarding `NC(=O)[C@H](CCCN=C(N)N)NC(=O)CNC(=O)CS`, the inhibition constant (Ki) came out at 641 µM.

As for `NCCCC[C@H](NC(=O)CS)C(=O)N[C@@H](Cc1ccccc1)C(N)=O`, the Ki was 126 µM.

For `CC(C)[C@H](NC(=O)CS)C(=O)N[C@@H](CCCN=C(N)N)C(N)=O`, the Ki is 69 µM.

Turning to `NC(=O)[C@H](Cc1c[nH]c2ccccc12)NC(=O)[C@H](CS)NC(=O)CS`, the Ki is 108 µM.

`CC(C)C[C@H](NC(=O)[C@H](CC(=O)O)NC(=O)CS)C(N)=O`: the inhibition constant (Ki) stood at 118 µM.

With `CC(C)[C@H](NC(=O)[C@H](CCCCN)NC(=O)CS)C(N)=O`, the Ki was 555 µM.

`NC(=O)[C@H](Cc1c[nH]c2ccccc12)NC(=O)[C@H](Cc1ccccc1)NC(=O)CS`: the inhibition constant Ki amounted to 206 µM.

Turning to `NC(=O)[C@H](Cc1c[nH]c2ccccc12)NC(=O)[C@H](CC(=O)O)NC(=O)CS`, the inhibition constant Ki amounted to 207 µM.

As for `CC(C)C[C@H](NC(=O)[C@@H](NC(=O)CS)C(C)C)C(N)=O`, the Ki amounted to 69 µM.

In the case of `CC(C)C[C@H](NC(=O)CS)C(=O)N[C@@H](CCCCN)C(N)=O`, the Ki came to 14 µM.

Turning to `NCCCC[C@H](NC(=O)CNC(=O)CS)C(N)=O`, the Ki was found to be 451 µM.

On to `NC(=O)[C@H](Cc1ccccc1)NC(=O)[C@H](Cc1cnc[nH]1)NC(=O)CS`, for which the Ki is 21 µM.

As to `NCCCC[C@H](NC(=O)[C@H](Cc1ccccc1)NC(=O)CS)C(N)=O`, the inhibitory constant (Ki) is 76 µM.

Regarding `NC(=O)[C@H](Cc1ccccc1)NC(=O)[C@H](CO)NC(=O)CS`, the inhibition constant (Ki) was 75 µM.

In the case of `CC(C)[C@H](NC(=O)[C@H](CCC(=O)O)NC(=O)CS)C(N)=O`, the Ki came to 730 µM.

On to `NC(=O)[C@H](Cc1ccccc1)NC(=O)[C@H](CS)NC(=O)CS`, for which the Ki is 131 µM.

For the molecule `C[C@H](NC(=O)CS)C(=O)N[C@@H](CCCCN)C(N)=O`, the inhibition constant Ki is 153 µM.

On to `NCCCC[C@H](NC(=O)[C@H](CCC(N)=O)NC(=O)CS)C(N)=O`, for which the inhibition constant (Ki) was determined as 380 µM.

On to `CC(C)C[C@H](NC(=O)[C@H](CCCCN)NC(=O)CS)C(N)=O`, for which the Ki is 123 µM.

In the case of `CC[C@@H](C)[C@H](NC(=O)CS)C(=O)N[C@@H](Cc1c[nH]c2ccccc12)C(N)=O`, the Ki amounted to 366 µM.
